Test results published in ChEMBL document CHEMBL5500384, “New synergistic benzoquinone scaffolds as inhibitors of mycobacterial cytochrome bc1 complex to treat multi-drug resistant tuberculosis” (Eur J Med Chem, 2024).
In brackets after ≈: the same amount, converted by molar mass.

Assays:
[1] = Acute toxicity in Albino mouse assessed as change in serum creatine level at 50 to 2000 mg/kg, po measured after 14 days (reference value: 0.9 mg/dl); format: organism-based; details: in vivo, 336 h, dose 50-2000 mg/kg, time 14 day
[2] = Renal toxicity in Albino mouse assessed as structural absorbability abnormalities at 50 to 2000 mg/kg, po measured after 14 days; format: organism-based; details: in vivo, 336 h, dose 50-2000 mg/kg, time 14 day
[3] = Acute toxicity in Albino mouse assessed as change in lymphocytes at 50 to 2000 mg/kg, po measured after 14 days (reference value: 21%); format: organism-based; details: in vivo, 336 h, dose 50-2000 mg/kg, time 14 day
[4] = Renal toxicity in Albino mouse assessed as change in renal tubules at 50 to 2000 mg/kg, po measured after 14 days; format: organism-based; details: in vivo, 336 h, dose 50-2000 mg/kg, time 14 day
[5] = Cytotoxicity against african green monkey Vero cells assessed as cell viability at 6.25 ug/ml by MTT assay; format: toxicity, cell-based; details: chlorocebus sabaeus, at 6.25 µg/mL, read-out: Activity
[6] = Cytotoxicity against african green monkey Vero cells assessed as cell viability at 50 ug/ml by MTT assay; format: toxicity, cell-based; details: chlorocebus sabaeus, at 50 µg/mL, read-out: Activity
[7] = Pulmonary toxicity in Albino mouse assessed as change in bronchi structure at 50 to 2000 mg/kg, po measured after 14 days; format: organism-based; details: in vivo, 336 h, dose 50-2000 mg/kg, time 14 day
[8] = Acute toxicity in Albino mouse assessed as change in ESR at 50 to 2000 mg/kg, po measured after 14 days (reference value: 10 millimeter); format: organism-based; details: in vivo, 336 h, dose 50-2000 mg/kg, time 14 day
[9] = Hepatotoxicity in Albino mouse assessed as change in hepatocytes at 50 to 2000 mg/kg, po measured after 14 days; format: toxicity, organism-based; details: in vivo, 336 h, dose 50-2000 mg/kg, time 14 day
[10] = Cytotoxicity against african green monkey Vero cells assessed as cell viability at 100 ug/ml by MTT assay; format: toxicity, cell-based; details: chlorocebus sabaeus, at 100 µg/mL, read-out: Activity
[11] = Acute toxicity in Albino mouse assessed as change in SGPT count at 50 to 2000 mg/kg, po measured after 14 days (reference value: 52 IU/L); format: organism-based; details: in vivo, 336 h, dose 50-2000 mg/kg, time 14 day
[12] = Pulmonary toxicity in Albino mouse assessed as appearance of cilia at 50 to 2000 mg/kg, po measured after 14 days; format: organism-based; details: in vivo, 336 h, dose 50-2000 mg/kg, time 14 day
[13] = Pulmonary toxicity in Albino mouse assessed as change in squamous pneumocytes at 50 to 2000 mg/kg, po measured after 14 days; format: organism-based; details: in vivo, 336 h, dose 50-2000 mg/kg, time 14 day
[14] = Pulmonary toxicity in Albino mouse assessed as change in alveoli structure at 50 to 2000 mg/kg, po measured after 14 days; format: organism-based; details: in vivo, 336 h, dose 50-2000 mg/kg, time 14 day
[15] = Acute toxicity in po dosed Albino mouse assessed as mortality after 14 days; format: organism-based; details: in vivo, time 14 day
[16] = Cytotoxicity against african green monkey Vero cells assessed as cell viability at 25 ug/ml by MTT assay; format: toxicity, cell-based; details: chlorocebus sabaeus, at 25 µg/mL, read-out: Activity
[17] = Pulmonary toxicity in Albino mouse assessed as appearance of goblet cells at 50 to 2000 mg/kg, po measured after 14 days; format: organism-based; details: in vivo, 336 h, dose 50-2000 mg/kg, time 14 day
[18] = Hepatotoxicity in Albino mouse assessed as change in bile duct at 50 to 2000 mg/kg, po measured after 14 days; format: toxicity, organism-based, Liver; details: in vivo, 336 h, dose 50-2000 mg/kg, time 14 day
[19] = Renal toxicity in Albino mouse assessed as change in proximal convoluted tubules at 50 to 2000 mg/kg, po measured after 14 days; format: organism-based; details: in vivo, 336 h, dose 50-2000 mg/kg, time 14 day
[20] = Acute toxicity in Albino mouse assessed as change in total leucocyte count at 50 to 2000 mg/kg, po measured after 14 days (reference value: 7400 mm3); format: organism-based; details: in vivo, 336 h, dose 50-2000 mg/kg, time 14 day
[21] = Hepatotoxicity in Albino mouse assessed as change in central vein at 50 to 2000 mg/kg, po measured after 14 days; format: toxicity, organism-based; details: in vivo, 336 h, dose 50-2000 mg/kg, time 14 day
[22] = test system: Mycobacterium tuberculosis; assay: Antitubercular activity against Mycobacterium tuberculosis H37Rv incubated for 5 days by microtiter plate method; format: functional; details: 120 h, time 5 day
[23] = Acute toxicity in Albino mouse assessed as change in neutrophils at 50 to 2000 mg/kg, po measured after 14 days (reference value: 75%); format: organism-based; details: in vivo, 336 h, dose 50-2000 mg/kg, time 14 day
[24] = Pulmonary toxicity in Albino mouse assessed as change in alveolar sacs at 50 to 2000 mg/kg, po measured after 14 days; format: organism-based; details: in vivo, 336 h, dose 50-2000 mg/kg, time 14 day
[25] = Acute toxicity in Albino mouse assessed as change in eosinophils at 50 to 2000 mg/kg, po measured after 14 days (reference value: 3%); format: organism-based; details: in vivo, 336 h, dose 50-2000 mg/kg, time 14 day
[26] = Acute toxicity in Albino mouse assessed as mortality at 300 mg/kg, po after 5 to 8 hrs; format: organism-based; details: in vivo, time 5-8 hrs
[27] = Hepatotoxicity in Albino mouse assessed as change in hepatic artery at 50 to 2000 mg/kg, po measured after 14 days; format: toxicity, organism-based, Liver; details: in vivo, 336 h, dose 50-2000 mg/kg, time 14 day
[28] = Renal toxicity in Albino mouse assessed as change in Bowman's capsule at 50 to 2000 mg/kg, po measured after 14 days; format: organism-based; details: in vivo, 336 h, dose 50-2000 mg/kg, time 14 day
[29] = Renal toxicity in Albino mouse assessed as change in renal corpuscles at 50 to 2000 mg/kg, po measured after 14 days; format: organism-based; details: in vivo, 336 h, dose 50-2000 mg/kg, time 14 day
[30] = Acute toxicity in Albino mouse assessed as mortality at 2000 mg/kg, po after 2 to 4 hrs; format: organism-based; details: in vivo, time 2-4 hrs
[31] = Acute toxicity in Albino mouse assessed as change in SGOT count at 50 to 2000 mg/kg, po measured after 14 days (reference value: 42 IU/L); format: organism-based; details: in vivo, 336 h, dose 50-2000 mg/kg, time 14 day
[32] = Acute toxicity in Albino mouse assessed as change in serum urea level at 50 to 2000 mg/kg, po measured after 14 days (reference value: 46 mg/dl); format: organism-based; details: in vivo, 336 h, dose 50-2000 mg/kg, time 14 day
[33] = Acute toxicity in Albino mouse assessed as mortality at 50 mg/kg, po after 14 days; format: organism-based; details: in vivo, 336 h, time 14 day
[34] = Acute toxicity in Albino mouse assessed as change in RBC count measured per million cells at 50 to 2000 mg/kg, po measured after 14 days (reference value: 9.15 microL); format: organism-based, Erythrocyte; details: in vivo, 336 h, dose 50-2000 mg/kg, time 14 day
[35] = Cytotoxicity against african green monkey Vero cells assessed as cell viability at 12.5 ug/ml by MTT assay; format: toxicity, cell-based; details: chlorocebus sabaeus, at 12.5 µg/mL, read-out: Activity
[36] = Hepatotoxicity in Albino mouse assessed as change in portal vein at 50 to 2000 mg/kg, po measured after 14 days; format: toxicity, organism-based; details: in vivo, 336 h, dose 50-2000 mg/kg, time 14 day
[37] = Acute toxicity in Albino mouse assessed as change in ALP level at 50 to 2000 mg/kg, po measured after 14 days (reference value: 28 IU/L); format: organism-based; details: in vivo, 336 h, dose 50-2000 mg/kg, time 14 day
[38] = Renal toxicity in Albino mouse assessed as change in distal convoluted tubules at 50 to 2000 mg/kg, po measured after 14 days; format: organism-based; details: in vivo, 336 h, dose 50-2000 mg/kg, time 14 day
[39] = Renal toxicity in Albino mouse assessed as extravasation of RBC at 50 to 2000 mg/kg, po measured after 14 days; format: organism-based, Erythrocyte; details: in vivo, 336 h, dose 50-2000 mg/kg, time 14 day
[40] = Hepatotoxicity in Albino mouse assessed as change in portal tracks at 50 to 2000 mg/kg, po measured after 14 days; format: toxicity, organism-based; details: in vivo, 336 h, dose 50-2000 mg/kg, time 14 day
[41] = Acute toxicity in Albino mouse assessed as change in monocytes at 50 to 2000 mg/kg, po measured after 14 days (reference value: 1%); format: organism-based; details: in vivo, 336 h, dose 50-2000 mg/kg, time 14 day
[42] = Acute toxicity in Albino mouse assessed as change in LDH level at 50 to 2000 mg/kg, po measured after 14 days (reference value: 1052 IU/L); format: organism-based; details: in vivo, 336 h, dose 50-2000 mg/kg, time 14 day
[43] = Acute toxicity in Albino mouse assessed as change in hemoglobin level at 50 to 2000 mg/kg, po measured after 14 days (reference value: 12.8 g/dl); format: organism-based; details: in vivo, 336 h, dose 50-2000 mg/kg, time 14 day
[44] = Cytotoxicity against african green monkey Vero cells assessed as cell viability at 3.125 ug/ml by MTT assay; format: toxicity, cell-based; details: chlorocebus sabaeus, at 3.125 µg/mL, read-out: Activity
[45] = Renal toxicity in Albino mouse assessed as change in tubular capillaries at 50 to 2000 mg/kg, po measured after 14 days; format: organism-based; details: in vivo, 336 h, dose 50-2000 mg/kg, time 14 day

NC1=C(Cl)C(=O)c2ccccc2C1=O
Activity [1]: 0.9 mg/dL
Activity [2]: Non-Toxic
Activity [3]: 36%
Activity [4]: Non-Toxic
viability at 6.25 ug/ml [5]: 55%
viability at 50 ug/ml [6]: 9.3%
Activity [7]: Non-Toxic
Activity [8]: 16 millimeter/hr
Activity [9]: Non-Toxic
viability at 100 ug/ml [10]: 3.1%
Activity [11]: 26 IU/L
Activity [12]: Non-Toxic
Activity [13]: Non-Toxic
Activity [14]: Non-Toxic
LD50 at 336 h [15]: 50 mg/kg
viability at 25 ug/ml [16]: 18%
Activity [17]: Non-Toxic
Activity [18]: Non-Toxic
Activity [19]: Non-Toxic
Activity [20]: 3900 cells/mm3
Activity [21]: Non-Toxic
MIC [22]: 15.1 µM (≈ 3.12 µg/mL)
Activity [23]: 58%
Activity [24]: Non-Toxic
Activity [25]: 5%
Activity [26]: Toxic
Activity [27]: Non-Toxic
Activity [28]: Non-Toxic
Activity [29]: Non-Toxic
Activity [30]: Toxic
Activity [31]: 34 IU/L
Activity [32]: 68 mg/dL
Activity [33]: Non-Toxic
Activity [34]: 4.53 10^6 cells/µL
viability at 12.5 ug/ml [35]: 31%
Activity [36]: Non-Toxic
Activity [37]: 40 IU/L
Activity [38]: Non-Toxic
Activity [39]: Non-Toxic
Activity [40]: Non-Toxic
Activity [41]: 1%
Activity [42]: 1519 IU/L
Activity [43]: 13.6 g/dL
viability at 3.125 ug/ml [44]: 60%
Activity [45]: Non-Toxic
